In patent publication US11006626B2, “Compounds for protection of cells” (Sulfateq B.V., priority 2012, dated 2021):
Read-outs that look alike come from different tables or passages of the source.

System: Human Embryo Kidney (HEK) 293 cells
Experiment: Hypothermia/rewarming injury of HEK cells, trypan blue viability count
Assay type: cell-based
Settings: for viability at 0.1 µM / viability at 1 µM / viability at 10 µM / viability at 100 µM / viability at 1000 µM / viability at 0.01 µM: Homo sapiens, read-out: % cells that survived; for viability at 0.1 µM: 100 nM; for viability at 0.1 µM / viability at 1 µM / viability at 10 µM / viability at 100 µM / viability at 1000 µM / viability at 0.01 µM / % cells that survived: 24 h at 4° C., 24 h rewarming; for % cells that survived, Mean: mean over the tested concentrations
Method: Human Embryo Kidney (HEK) 293 cells were cultured in DMEM cell culture medium (Life Technologies, 41965-052) supplemented with fetal calf serum, penicillin and streptomycin. Cells were seeded at a density of 0.8-1.2E6 mL-1 in 25 cm2 polystyrene flasks, placed in a 37° C.
The compounds were dissolved in dimethyl sulfoxide (DMSO) to several concentrations. Before commencing experiments, this stock solution was dissolved in pre-warmed DMEM and further diluted to obtain a concentration range from 10 nM-1 mM. Cell culture medium was then replaced by these dilutions and cells were incubated in the presence of the compound for 1 hour. After incubation, lids were closed tightly and flasks were placed in a 4° C. room and cooled for 24 hours. After this cooling period, cells were placed back in the 37° C. incubator with lids closed and were allowed to rewarm for another 24 hours.
After this rewarming period, microscopic images were taken to assess cell morphology (Nikon D5100, Nikon Diaphot-TMD). Cell culture medium was collected and centrifuged (4 minutes, 2000 rpm). The supernatant was collected and pH was immediately measured to prevent equilibration of the pH by the carbonate buffer in the medium, while the pelleted cells were resuspended in 5 mL of PBS. Cells remaining in the flask were washed twice with phosphate buffered saline (PBS) while the washing product was discarded. Subsequently, the cells were trypsinized by addition of 0.5 mL of trypsine and pooled with the resuspended pellet. This cell suspension was then stained at a final concentration of 0.2% trypan blue (Sigma, T8154), followed by manual assessment of viability and cell number on a Bürker-Türk hemocytometer. To conclude the assay, cell culture medium glucose levels were measured (Roche Accutrend Plus) as an indication of metabolic activity. All of these steps were performed with care to prevent mechanical stress to influence or alter the viability of the cells after cooling.
The amount represents the % cells that survived. […] In the control, the same procedure was applied to two badges of HEK cells.

Row | SMILES | viability at 0.1 µM (HEK293, 24 h) [%] | viability at 1 µM (HEK293, 24 h) [%] | viability at 10 µM (HEK293, 24 h) [%] | viability at 100 µM (HEK293, 24 h) [%] | viability at 1000 µM (HEK293, 24 h, 1 mM) [%] | % cells that survived, Mean [%] | viability at 0.01 µM (HEK293, 24 h, 10 nM) [%] | viability at 0.01 µM (HEK293, 10 nM) [%] | viability at 0.1 µM (HEK293) [%] | viability at 1 µM (HEK293) [%] | viability at 10 µM (HEK293) [%] | viability at 100 µM (HEK293) [%] | viability at 1000 µM (HEK293, 1 mM) [%] | % cells that survived (10 nM) [%] | % cells that survived (1 mM) [%]
1 | Cc1c(C)c2c(c(C)c1O)CCC(C)(C)O2 [SUL - 83, 2,2,5,7,8-pentamethylchroman-6-ol] | 0 | 79.4 | 70.1 | 55.7 | 1.11 | 41 | – | – | – | – | – | – | – | – | –
2 | Cc1c(C)c2c(c(C)c1O)CC[C@@](C)(C(=O)O)O2 [SUL - 84, (S)-6-hydroxy-2,5,7,8-tetramethylchroman-2-carboxylic acid] | 6.22 | 19.8 | 70.1 | 95.7 | 94.5 | 57 | – | – | – | – | – | – | – | – | –
3 | Cc1c(C)c2c(c(C)c1O)CC[C@](C)(C(=O)O)O2 [SUL - 85, (R)-6-hydroxy-2,5,7,8-tetramethylchroman-2-carboxylic acid] | 1.23 | 0 | 1.43 | 84.9 | 78.3 | 33 | – | – | – | – | – | – | – | – | –
4 | Cc1c(C)c2c(c(C)c1O)CCC(C)(C(N)=O)O2 (centres unmarked) [SUL - 89, 6-hydroxy-2,5,7,8-tetramethylchroman-2-carboxamide] | 34.9 | 88.6 | 91.6 | 87.6 | – | 76 | – | – | – | – | – | – | – | – | –
5 | Cc1c(C)c2c(c(C)c1O)CCC(C)(C(=O)NO)O2 (centres unmarked) [SUL - 90, N,6-dihydroxy-2,5,7,8-tetramethylchroman-2-carboxamide] | 8.67 | 91.3 | 90.2 | 77.9 | 20.4 | 58 | – | – | – | – | – | – | – | – | –
6 | CCCCNC(=O)C1(C)CCc2c(C)c(O)c(C)c(C)c2O1 (centres unmarked) [SUL - 91, N-butyl-6-hydroxy-2,5,7,8-tetramethylchroman-2-carboxamide] | 2.28 | 82.4 | 89.5 | 87.5 | 0 | 52 | – | – | – | – | – | – | – | – | –
7 | Cc1c(C)c2c(c(C)c1O)CCC(C)(C(=O)NC(C)C)O2 (centres unmarked) [SUL - 92, 6-hydroxy-N-isopropyl-2,5,7,8-tetramethylchroman-2-carboxamide] | 3.13 | 64.6 | 87.1 | 86.5 | 1.55 | 49 | – | – | – | – | – | – | – | – | –
8 | CC(C)=CCC/C(C)=C/CNC(=O)C1(C)CCc2c(C)c(O)c(C)c(C)c2O1 (centres unmarked) [SUL - 93, (E)-N-(3,7-dimethylocta-2,6-dien-1-yl)-6-hydroxy-2,5,7,8-tetramethylchroman-2-carboxamide] | 97 | 96.1 | 84 | 21.7 | 8 | 61 | – | – | – | – | – | – | – | – | –
9 | Cc1c(C)c2c(c(C)c1O)CCC(C)(C(=O)N1CCOCC1)O2 (centres unmarked) [SUL - 95, (6-hydroxy-2,5,7,8-tetramethylchroman-2-yl)(morpholino)methanone] | 2.76 | 86.8 | 90.4 | 92.1 | 85.9 | 72 | – | – | – | – | – | – | – | – | –
10 | Cc1c(C)c2c(c(C)c1O)CCC(C)(C(=O)NCc1ccc(F)cc1)O2 (centres unmarked) [SUL - 97, N-(4-fluorobenzyl)-6-hydroxy-2,5,7,8-tetramethylchroman-2-carboxamide] | 0 | 95.1 | 96.4 | 91.6 | 5.17 | 58 | – | – | – | – | – | – | – | – | –
11 | Cc1c(C)c2c(c(C)c1O)CCC(C)(C(=O)N[C@H](CO)c1ccccc1)O2 (stereo partly drawn) [SUL - 98, 6-hydroxy-N-((S)-2-hydroxy-1-phenylethyl)-2,5,7,8-tetramethylchroman-2-carboxamide] | 91 | 97.8 | 97.5 | 88.5 | 1.02 | 75 | – | – | – | – | – | – | – | – | –
12 | Cc1c(C)c2c(c(C)c1O)CCC(C)(C(=O)NCCCN1CCCCC1)O2 (centres unmarked) [SUL - 102, 6-hydroxy-2,5,7,8-tetramethyl-N-(3-(piperidin-1-yl)propyl)chroman-2-carboxamide] | 95.8 | 93.7 | 82 | 73.4 | 93.3 | 85 | 73.2 | – | – | – | – | – | – | – | –
13 | Cc1c(C)c2c(c(C)c1O)CCC(C)(C(=O)Nc1cccc([N+](=O)[O-])c1)O2 (centres unmarked) [SUL - 104, 6-hydroxy-2,5,7,8-tetramethyl-N-(3-nitrophenyl)chroman-2-carboxamide] | 99.5 | 97.5 | 98.9 | 40.9 | 52.2 | 81 | 99.3 | – | – | – | – | – | – | – | –
14 | Cc1c(C)c2c(c(C)c1O)CCC(C)(C(=O)Nc1ccc(F)cc1)O2 (centres unmarked) [SUL - 106, N-(4-fluorophenyl)-6-hydroxy-2,5,7,8-tetramethylchroman-2-carboxamide] | 76.9 | 63.2 | 68.8 | 55.6 | 0 | 57 | 77.8 | – | – | – | – | – | – | – | –
15 | COC(=O)c1ccc(NC(=O)C2(C)CCc3c(C)c(O)c(C)c(C)c3O2)cc1 (centres unmarked) [SUL - 107, methyl 4-(6-hydroxy-2,5,7,8-tetramethylchroman-2-carboxamido)benzoate] | 95.7 | 92.7 | 94.8 | 37.6 | 28.9 | 59 | 4.42 | – | – | – | – | – | – | – | –
16 | CCCCN1CCN(C(=O)C2(C)CCc3c(C)c(O)c(C)c(C)c3O2)CC1 (centres unmarked) [SUL - 108, (4-butylpiperazin-1-yl)(6-hydroxy-2,5,7,8-tetramethylchroman-2-yl)methanone] | 40.9 | 94.2 | 96.8 | 96.6 | 0 | 55 | 0 | – | – | – | – | – | – | – | –
17 | Cc1c(C)c2c(c(C)c1O)CCC(C)(C(=O)N[C@@H](C(N)=O)c1ccccc1)O2 (stereo partly drawn) [SUL - 111, N-((R)-2-amino-2-oxo-1-phenylethyl)-6-hydroxy-2,5,7,8-tetramethylchroman-2-carboxamide] | 81.6 | 97.3 | 93.7 | 94.3 | 79.2 | 90 | 90.9 | – | – | – | – | – | – | – | –
18 | Cc1c(C)c2c(c(C)c1O)CCC(C)(C(=O)N1CCC[C@H]1CO)O2 (stereo partly drawn) [SUL - 112, (6-hydroxy-2,5,7,8-tetramethylchroman-2-yl)((S)-2-(hydroxymethyl)pyrrolidin-1-yl)methanone] | 96.5 | 95.4 | 93 | 93.1 | 0 | 79 | 96.3 | – | – | – | – | – | – | – | –
19 | Cc1c(C)c2c(c(C)c1O)CCC(C)(C(=O)NCCBr)O2 (centres unmarked) [SUL - 114, N-(2-bromoethyl)-6-hydroxy-2,5,7,8-tetramethylchroman-2-carboxamide] | – | – | – | – | – | 71 | – | 81.1 | 87.2 | 89.9 | 87.7 | 77.9 | 0 | – | –
20 | Cc1c(C)c2c(c(C)c1O)CCC(C)(C(=O)N1CCN(CCOCCO)CC1)O2 (centres unmarked) [SUL - 122, (6-hydroxy-2,5,7,8-tetramethylchroman-2-yl)(4-(2-(2-hydroxyethoxy)ethyl)piperazin-1-yl)methanone] | 22.5 | 85.6 | 85.2 | 88.5 | 55.6 | 57 | 5.15 | – | – | – | – | – | – | – | –
21 | Cc1c(C)c2c(c(C)c1O)CCC(C)(C(=O)NCCC#N)O2 (centres unmarked) [SUL - 123, N-(2-cyanoethyl)-6-hydroxy-2,5,7,8-tetramethylchroman-2-carboxamide] | 90.5 | 83.2 | 88.4 | 88.2 | 0.75 | 70 | 68.4 | – | – | – | – | – | – | – | –
22 | Cc1c(C)c2c(c(C)c1O)CCC(C)(CN1CCC[C@H]1CO)O2 (stereo partly drawn) [SUL - 128, 2-(((S)-2-(hydroxymethyl)pyrrolidin-1-yl)methyl)-2,5,7,8-tetramethylchroman-6-ol] | 100 | 100 | 100 | 99.4 | – | 71 | – | – | – | – | – | – | – | 28.21 | 0.00
23 | Cc1c(C)c2c(c(C)c1O)CCC(C)(CN[C@H](CO)c1ccccc1)O2 (stereo partly drawn) [SUL - 129, 2-((((S)-2-hydroxy-1-phenylethyl)amino)methyl)-2,5,7,8-tetramethylchroman-6-ol] | 5.65 | 88.8 | 89.9 | 91.5 | 0 | 46 | 0 | – | – | – | – | – | – | – | –
